In US9586928B2 (The Scripps Research Institute, priority 2011, dated 2017):

Assays:
[1] = target: T1, LXR (Homo sapiens, UniProt Q13133); assay: Gal4-LXRα / UAS luciferase cotransfection assay; format: cell-based; details: 10 μM
T1 sequence (Q13133 209-447 limits assumed): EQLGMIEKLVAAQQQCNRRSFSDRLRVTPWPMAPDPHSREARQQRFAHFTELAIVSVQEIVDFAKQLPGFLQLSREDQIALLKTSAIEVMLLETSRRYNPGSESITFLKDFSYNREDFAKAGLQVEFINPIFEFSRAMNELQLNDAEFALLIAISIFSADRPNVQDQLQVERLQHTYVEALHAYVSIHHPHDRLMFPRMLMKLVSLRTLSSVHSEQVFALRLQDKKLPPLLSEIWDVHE

[2] = test system: VP16; assay: Gal4 DBD-VP16 / UAS luciferase control assay; format: cell-based; details: 10 μM
Protocol: (§1) The cells were treated with either DMSO or various compounds as indicated four hours after replating. Following additional 20 hour incubation, luciferase levels were assayed by one-step addition of 20 μL BriteLite (Perkin Elmer) and read using an Envision multilabel plate reader (Perkin Elmer).

[3] = target: T2, RORγ (Homo sapiens, UniProt P51449); assay: Gal4-RORγ LBD / UAS luciferase cotransfection assay; format: cell-based; details: 10 μM
T2 construct: expressed in transfected cells; host or cells: HEK293T
T2 sequence (P51449 269-508 limits assumed): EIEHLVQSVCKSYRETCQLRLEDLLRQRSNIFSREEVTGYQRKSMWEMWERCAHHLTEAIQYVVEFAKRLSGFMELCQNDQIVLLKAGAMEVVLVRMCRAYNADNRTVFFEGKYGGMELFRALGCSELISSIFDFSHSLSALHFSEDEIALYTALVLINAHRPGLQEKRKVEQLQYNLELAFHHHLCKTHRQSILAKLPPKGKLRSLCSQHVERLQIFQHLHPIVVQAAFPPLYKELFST

[4] = target: T3, RORα (Homo sapiens, UniProt P35398); assay: Gal4-RORα LBD / UAS luciferase cotransfection assay; format: cell-based; details: 10 μM
T3 construct: expressed in transfected cells; host or cells: HEK293T
T3 sequence (P35398 272-510 limits assumed): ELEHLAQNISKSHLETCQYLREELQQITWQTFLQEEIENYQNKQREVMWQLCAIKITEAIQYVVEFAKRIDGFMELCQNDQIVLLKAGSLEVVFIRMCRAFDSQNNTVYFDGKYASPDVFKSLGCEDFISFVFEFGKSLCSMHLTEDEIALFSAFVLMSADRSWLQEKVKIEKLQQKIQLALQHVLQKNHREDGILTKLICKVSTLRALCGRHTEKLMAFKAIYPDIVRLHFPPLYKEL
Protocol: as §1
Cotransfection assays were performed as previously described in HEK293 cells (Gal4 cotransfection assay or IL-17 luciferase reporter)[8]. HEK293 and the mouse lymphoma EL4 (ATCC) cells were maintained in DMEM supplemented with 10% FBS plus antibiotics (penicillin and streptomycin; Invitrogen).

[5] = target: T4, GST-RORγ (Homo sapiens, UniProt P51449); assay: RORγ scintillation proximity (SPA) radioligand binding assay, displacement of [3H]-T0901317; details: 1 μM compound (Table 2D); read-out: RORγ SPA % bound = % radiolabel bound
T4 construct: 1 μg of GST-RORγ-LBD, 5 nM of [3H]T1317 as radioligand
T4 sequence (P51449 269-508 limits assumed): T2 sequence (P51449 269-508 limits assumed)

SMILES: OCCN1CCN(Cc2ccc(-c3ccc(C(O)(C(F)(F)F)C(F)(F)F)cc3)cc2)CC1 [Compound 2, 1,1,1,3,3,3-Hexafluoro-2-(4′-((4-(2-hydroxyethyl)piperazin-1-yl)methyl)-[1,1′-biphenyl]-4-yl)propan-2-ol]
- LXR activation, fold change over DMSO [1]: 1.1 fold change over DMSO
- VP16 repression, fold change over DMSO [2]: 0.9 fold change over DMSO
- RORγ repression, fold change over DMSO [3]: 0.9 fold change over DMSO
- RORα repression, fold change over DMSO [4]: 1.3 fold change over DMSO

SMILES: OC(c1ccc(-c2ccc(CN3CCN(CCc4ccccc4)CC3)cc2)cc1)(C(F)(F)F)C(F)(F)F [Compound 11, 1,1,1,3,3,3-Hexafluoro-2-(4′-((4-phenethylpiperazin-1-yl)methyl)-[1,1′-biphenyl]-4-yl)propan-2-ol]
- LXR activation, fold change over DMSO [1]: 1 fold change over DMSO
- VP16 repression, fold change over DMSO [2]: 0.35 fold change over DMSO
- RORγ repression, fold change over DMSO [3]: 0.5 fold change over DMSO
- RORα repression, fold change over DMSO [4]: 0.5 fold change over DMSO

SMILES: OC(c1ccc(-c2ccc(CN3CCN(c4ccccc4)CC3)cc2)cc1)(C(F)(F)F)C(F)(F)F [Compound 14, 1,1,1,3,3,3-Hexafluoro-2-(4′-((4-phenylpiperazin-1-yl)methyl)-[1,1′-biphenyl]-4-yl)propan-2-ol]
- LXR activation, fold change over DMSO [1]: 5 fold change over DMSO
- VP16 repression, fold change over DMSO [2]: 0.4 fold change over DMSO
- RORγ repression, fold change over DMSO [3]: 0.05 fold change over DMSO
- RORα repression, fold change over DMSO [4]: 0.4 fold change over DMSO

SMILES: O=C(C1CCCO1)N1CCN(Cc2ccc(-c3ccc(C(O)(C(F)(F)F)C(F)(F)F)cc3)cc2)CC1 (centres unmarked) [Compound 16, (4-((4′-(1,1,1,3,3,3-Hexafluoro-2-hydroxypropan-2-yl)-[1,1′-biphenyl]-4-yl)methyl)piperazin-1-yl)(tetrahydrofuran-2-yl)methanone]
- LXR activation, fold change over DMSO [1]: 1.4 fold change over DMSO
- VP16 repression, fold change over DMSO [2]: 0.6 fold change over DMSO
- RORγ repression, fold change over DMSO [3]: 0.6 fold change over DMSO
- RORα repression, fold change over DMSO [4]: 0.8 fold change over DMSO

SMILES: OC(c1ccc(-c2ccc(CN3CCN(Cc4cccs4)CC3)cc2)cc1)(C(F)(F)F)C(F)(F)F [Compound 19, 1,1,1,3,3,3-Hexafluoro-2-(4′-((4-(thiophen-2-ylmethyl)piperazin-1-yl)methyl)-[1,1′-biphenyl]-4-yl)propan-2-ol]
- LXR activation, fold change over DMSO [1]: 1.5 fold change over DMSO
- VP16 repression, fold change over DMSO [2]: 0.4 fold change over DMSO
- RORγ repression, fold change over DMSO [3]: 0.5 fold change over DMSO
- RORα repression, fold change over DMSO [4]: 0.75 fold change over DMSO

SMILES: OC(c1ccc(-c2ccc(CN3CCN(Cc4cc5cc(F)ccc5[nH]4)CC3)cc2)cc1)(C(F)(F)F)C(F)(F)F [Compound 20, 1,1,1,3,3,3-Hexafluoro-2-(4′-((4-((5-fluoro-1H-indol-2-yl)methyl)piperazin-1-yl)methyl)-[1,1′-biphenyl]-4-yl)propan-2-ol]
- LXR activation, fold change over DMSO [1]: 2.5 fold change over DMSO
- VP16 repression, fold change over DMSO [2]: 0.1 fold change over DMSO
- RORγ repression, fold change over DMSO [3]: 0.05 fold change over DMSO
- RORα repression, fold change over DMSO [4]: 0.1 fold change over DMSO

SMILES: CCCCC(c1ccc(-c2ccc(C(O)(C(F)(F)F)C(F)(F)F)cc2)cc1)N1CCN(Cc2ccncc2)CC1 (centres unmarked) [Example 142, 1,1,1,3,3,3-hexafluoro-2-(4′-(1-(4-(pyridin-4-ylmethyl)piperazin-1-yl)pentyl)-[1,1′-biphenyl]-4-yl)propan-2-ol]
- remaining activity at 1 µM [5]: 73%

SMILES: CC(Cc1ccc(-c2ccc(C(O)(C(F)(F)F)C(F)(F)F)cc2)cc1)N1CCN(Cc2ccncc2)CC1 (centres unmarked) [Example 143, 1,1,1,3,3,3-hexafluoro-2-(4′-(2-(4-(pyridin-4-ylmethyl)piperazin-1-yl)propyl)-[1,1′-biphenyl]-4-yl)propan-2-ol]
- remaining activity at 1 µM [5]: 74%

SMILES: OC(c1ccc(-c2ccc(CCN3CCN(Cc4ccncc4)CC3)cc2)cc1)(C(F)(F)F)C(F)(F)F [Example 144, 1,1,1,3,3,3-hexafluoro-2-(4′-(2-(4-(pyridin-4-ylmethyl)piperazin-1-yl)ethyl)-[1,1′-biphenyl]-4-yl)propan-2-ol]
- remaining activity at 1 µM [5]: 61%

SMILES: OC(c1ccc(-c2ccc(CN3CCN(Cc4ccc5cc[nH]c5c4)CC3)cc2)cc1)(C(F)(F)F)C(F)(F)F [Example 154, 2-(4′-((4-((1H-indol-6-yl)methyl)piperazin-1-yl)methyl)-[1,1′-biphenyl]-4-yl)-1,1,1,3,3,3-hexafluoropropan-2-ol]
- remaining activity at 1 µM [5]: 90%

SMILES: OC(c1ccc(-c2ccc(CN3CCN(Cc4ccc5nc[nH]c5c4)CC3)cc2)cc1)(C(F)(F)F)C(F)(F)F [Example 155, 2-(4′-((4-((1H-benzo[d]imidazol-6-yl)methyl)piperazin-1-yl)methyl)-[1,1′-biphenyl]-4-yl)-1,1,1,3,3,3-hexafluoropropan-2-ol]
- remaining activity at 1 µM [5]: 100%

SMILES: CC(C)Oc1cc(C(O)(C(F)(F)F)C(F)(F)F)ccc1-c1ccc(CN2CCN(Cc3ccncc3)CC2)cc1 [Example 156, 1,1,1,3,3,3-hexafluoro-2-(2-isopropoxy-4′-((4-(pyridin-4-ylmethyl)piperazin-1-yl)methyl)-[1,1′-biphenyl]-4-yl)propan-2-ol]
- remaining activity at 1 µM [5]: 75%

SMILES: CC(C)CCN1CCN(Cc2ccc(-c3ccc(C(O)(C(F)(F)F)C(F)(F)F)cc3)cc2)CC1 [Example 157, 1,1,1,3,3,3-hexafluoro-2-(4′-((4-isopentylpiperazin-1-yl)methyl)-[1,1′-biphenyl]-4-yl)propan-2-ol]
- remaining activity at 1 µM [5]: 20%

SMILES: CCCCC(=O)N1CCN(Cc2ccc(-c3ccc(C(O)(C(F)(F)F)C(F)(F)F)cc3)cc2)CC1 [Example 158, 1-(4-((4′-(1,1,1,3,3,3-hexafluoro-2-hydroxypropan-2-yl)-[1,1′-biphenyl]-4-yl)methyl)piperazin-1-yl)pentan-1-one]
- remaining activity at 1 µM [5]: 10%

SMILES: O=C(Cc1c[nH]cn1)N1CCN(Cc2ccc(-c3ccc(C(O)(C(F)(F)F)C(F)(F)F)cc3)cc2)CC1 [Example 159, 1-(4-((4′-(1,1,1,3,3,3-hexafluoro-2-hydroxypropan-2-yl)-[1,1′-biphenyl]-4-yl)methyl)piperazin-1-yl)-2-(1H-imidazol-4-yl)ethanone]
- remaining activity at 1 µM [5]: 80%

SMILES: OC(c1ccc(-c2ccc(CN3CCN(Cc4ccncc4)CC3)cc2C(F)(F)F)cc1)(C(F)(F)F)C(F)(F)F [Example 160, 1,1,1,33,33-hexafluoro-2-(4′-((4-(pyridin-4-ylmethyl)piperazin-1-yl)methyl)-2′-(trifluoromethyl)-[1,1′-biphenyl]-4-yl)propan-2-ol]
- remaining activity at 1 µM [5]: 77%

SMILES: N#Cc1cc(-c2ccc(C(O)(C(F)(F)F)C(F)(F)F)cc2)ccc1CN1CCN(Cc2ccncc2)CC1 [Example 161, 4′-(1,1,1,3,3,3-hexafluoro-2-hydroxypropan-2-yl)-4-((4-(pyridin-4-ylmethyl)piperazin-1-yl)methyl)-[1,1′-biphenyl]-3-carbonitrile]
- remaining activity at 1 µM [5]: 95%

SMILES: OC(c1ccc(-c2ccc3c(c2)CCN3C2CCN(Cc3ccncc3)CC2)cc1)(C(F)(F)F)C(F)(F)F [Example 162, 1,1,1,3,3,3-hexafluoro-2-(4-(1-(1-(pyridin-4-ylmethyl)piperidin-4-yl)indolin-5-yl)phenyl)propan-2-ol]
- remaining activity at 1 µM [5]: 15%

SMILES: OC(c1ccc(-c2cccc(CC3CCCN(Cc4ccncc4)C3)c2)cc1)(C(F)(F)F)C(F)(F)F (centres unmarked) [Example 163, 1,1,1,3,3,3-hexafluoro-2-(3′-((1-(pyridin-4-ylmethyl)piperidin-3-yl)methyl)-[1,1′-biphenyl]-4-yl)propan-2-ol]
- remaining activity at 1 µM [5]: 10%

SMILES: OC(c1ccc(-c2ccc(CC3CCN(Cc4ccncc4)CC3)cc2)cc1)(C(F)(F)F)C(F)(F)F [Example 164, 1,1,1,3,3,3-hexafluoro-2-(4′-((1-(pyridin-4-ylmethyl)piperidin-4-yl)methyl)-[1,1′-biphenyl]-4-yl)propan-2-ol]
- remaining activity at 1 µM [5]: 10%
